Experimental data as given in patent US10376535B2, “Therapy for malignant disease” (UNIVERSITY OF ROCHESTER, priority 2015, dated 2019).

Key:
PD-L1 [1] = experiment: PD-L1 immunofluorescence after MeTC7 treatment, human ovarian carcinoma cells (SKOV-3, OVCAR-8, IGROV-1); assay type: cell-based; details: MeTC7 125 nM, 4-6 hours
Protocol: (§1) Co-localization of VDR and PD-L1 was performed following the method in the Examples above. To determine the expression level of PD-L1 after MeTC7 treatment (125 nM), 10000 cells/well of SKOV-3, OVCAR-8 human ovarian carcinoma cells, IGROV-1 human ovarian carcinoma cells, and ID-8 murine ovarian cancer cells were seeded in an 8 well slide chamber (Nunc) and allowed to adhere overnight in FBS supplemented DMEM media. After 18 hours, the media was removed and the cells were treated with vehicle or MeTC7 supplemented DMEM serum free media for 4-6 hours. Cells maintained in DMEM medium were fixed with formalin solution for 15 mins, washed with PBST solution and blocked with Donkey serum 5% in PBST for 30 minutes. Cells were carefully washed and stained with PD-L1 primary antibody overnight in PBST. The cells were washed and stained with corresponding fluorescence linked secondary antibody for 1 hour. Cells were washed repeatedly with PBST (200 μL) five times. Casing on the chambers were removed and DAPI was applied in a mounting medium and images were recorded using an epi or confocal microscopy.

PD-L1 [2] = experiment: PD-L1 immunofluorescence after MeTC7 treatment, ID-8 murine ovarian cancer cells; assay type: cell-based; details: MeTC7 125 nM, 4-6 hours
Protocol: as §1

PD-L1 [3] = experiment: PD-L1 immunofluorescence after MeTC7 treatment, DAOY medulloblastoma cells; assay type: cell-based, human; details: MeTC7 125 nM, confocal microscopy
Protocol: FIG. 12 is a fluorescent micrograph depicting the effects of MeTC7 (125 nM) treatment on immune checkpoint PD-L1 expression in DAOY (human) medulloblastoma cells. Treated/naïve DAOY cells were analyzed by spinning disk confocal microscopy after staining with PD-L1 primary and suitable secondary antibodies.
as §1, with “Cells were washed repeatedly with PBST (200 μL) five times.” left out

PD-L1 [4] = experiment: PD-L1 expression after MeTC7 treatment, melanoma cells; assay type: cell-based
SKOV-3 cells = experiment: Tumor size in SKOV-3 xenograft, cisplatin-resistant murine model of ovarian cancer; assay type: in vivo; details: SKOV-3 xenograft nude mice; IP; oligos 7 mg/kg, cisplatin 10 mg/kg once a week; measured every 3 days
Protocol: Four to six week-old immunodeficient nude mice were maintained at a temperature of ˜22° C. and a relative humidity of ˜55%, with a 12 hour light/dark cycle. The mice used were NU/NU; strain code 088/homozygous, obtained from Charles River Laboratories, Wilmington, Mass. The inoculation of the mice began with culturing SKOV-3 cells to 80% confluence, washing the SKOV-3 cells in PBS twice, and harvesting the cells by trypsination. The harvested cells were then pooled in complete medium, washed in PBS twice, and 2×10^6 cells/inoculate were suspended in 0.1 ml of matrigel. This cell suspension was used to inoculate the mice subcutaneously in the flank of each mouse. Mice with developing tumors after two weeks were randomly assigned to experimental groups. Mice were treated intraperitoneally with either vehicle control (control group; 7 animals) or Antisense-1 (7 mg/kg bwt) or scrambled PTO (7 mg/kg bwt) for 7 days. In another arm mice were treated with cisplatin (10 mg/kg, once a week), or scrambled PTO (7 mg/kg, 5 times/week)+ cisplatin (10 mg/kg, IP, once a week) or Antisense-1 (7 mg/kg, IP, once a week)+ Cisplatin (10 mg/kg, IP, once a week). Mice were weighed and tumor size was measured using a digital caliper every 3 days.

PD-1 = experiment: RT-PCR of PD-1 in donor PBMCs incubated with recombinant HE4; assay type: cell-based, human; details: HE4 5.4 nM, donor PMBCs, within 6 hours
Protocol: Ficoll-Paque density gradient centrifugation was used to isolate PBMC from heparinized venous blood. Unfractionated PBMC were suspended in serum free RPMI1640 medium. Then the cells were incubated with recombinant HE4 (5.4 nM) or vehicle for 6 hours. TRIzol reagent was used to isolate the total RNA, and the first strand cDNA was made by SuperScript III reverse transcriptase. RT-PCR for the cDNA was done with PD-1 or GAPDH (internal control) gene specific primers. The primer sequences used for PD-1 are F-[…] (SEQ ID NO:4); R-[…] SEQ ID NO:5). The primer sequences used for internal control (GAPDH) are F-AATCCCATCACCATCTTCC SEQ ID NO:6); R-gTCCTTCCACgATACCAAAg SEQ ID NO:7).

`CC(C)CCC[C@@H](C)C1CC[C@H]2C34C=CC5(C[C@@H](OC(=O)CBr)CC[C@]5(C)[C@H]3CC[C@]12C)n1c(=O)n(C)c(=O)n14` (stereo partly drawn) [MeTC7] was tested. Which PD-L1 expression (PD-L1 [1]) did it give?
The PD-L1 expression was “down regulate”.

What about the PD-L1 expression (PD-L1 [2]) of the same molecule?
The PD-L1 expression was “down regulate”.

And the PD-L1 expression (PD-L1 [3])?
Its PD-L1 expression is “reduced PD-L1 expression”.

And the PD-L1 expression (PD-L1 [4])?
The PD-L1 expression was “a similar effect was not found”.

With `N.N.[Cl][Pt][Cl]` [cisplatin] as the molecule, how does the “percent change in tumor size” value (SKOV-3 cells) read?
The value was “an increase in tumor size at least initially”.

B1: recombinant HE4: exogenous recombinant human epididymis protein 4 added to PBMCs (protein, UniProt Q14508 31-124, looked up)
WAP four-disulfide core …: EKTGVCPELQADQNCTQECVSDSECADNLKCCSAGCATFCSLPNDKEGSCPQVNINFPQLGLCRDQCQVDSQCPGQMKCCRNGCGKVSCVTPNF
For B1, which “increase in PD-1 expression (PD-1/GAPDH ratio)” value (PD-1) is on record?
Its value is 77.7%.
